The text below walks through data of patent US6878522B2, “Methods for the identification of compounds useful for the treatment of disease states mediated by prostaglandin D2” (priority 2000, dated 2005).

For orientation: EC50 means the concentration at which the effect is half-maximal. As usually defined, the IC50 is the concentration that gives 50% inhibition. A high value points to lower potency. What is called Kd is a measure of binding affinity in units of concentration.

Each structure is given as a SMILES string. “Also recorded” adds a separate entry of the source.

Assay [1] concerns the target T1, CRTH2 (Homo sapiens, UniProt Q9Y5Y4).
T1 construct: prolactin (prolac) signal peptide (N); expressed in transfected cells; host or cells: 300-19 cells (transformed murine pre-B lymphocytes)
T1 sequence (Q9Y5Y4 1-395): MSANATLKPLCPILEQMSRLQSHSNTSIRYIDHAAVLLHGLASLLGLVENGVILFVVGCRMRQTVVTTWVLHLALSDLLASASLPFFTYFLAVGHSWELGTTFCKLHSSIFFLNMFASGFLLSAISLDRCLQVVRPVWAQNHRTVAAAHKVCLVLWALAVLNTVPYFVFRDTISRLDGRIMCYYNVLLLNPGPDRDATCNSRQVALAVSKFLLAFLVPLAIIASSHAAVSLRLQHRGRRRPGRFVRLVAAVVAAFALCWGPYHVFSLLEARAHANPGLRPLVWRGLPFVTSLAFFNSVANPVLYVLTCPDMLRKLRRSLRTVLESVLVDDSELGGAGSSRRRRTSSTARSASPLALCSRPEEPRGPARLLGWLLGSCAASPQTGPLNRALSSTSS
Kind of assay: [Ca2+]i mobilization assay in 300-19 cells expressing CRTH2. The format is cell-based. The following applies: CRTH2 stable cell line (300-19 transfectants).
Experimental: The ratio of fluorescence produced by the calcium-bound dye to that produce by the unbound dye is used to estimate the intracellular calcium concentration. In one embodiment, for example, the following method can be used. Cells that express CRTH2 are collected, and resuspended in fresh media at ˜2×10^5/ml the day before performing the calcium flux assay. Cells are incubated at 37° C. for not longer than 20-30 minutes, and then spun down and resuspended in 50 ml fresh PTI buffer (Hank's Buffer, pH 7.2-7.4; 10 mM Hepes; 1.6 mM CaCl2) containing Indo-1 AM, pre-warmed to 37° C., at a concentration of 10 million per ml. Cells are excited, and fluorescence is measured using a fluorimeter (Photon Technology Corporation, International). After the readout has stabilized, the time axis is reset, and PGD2 is added at a specific time point (e.g., 20 seconds). After response, the following reagents are added to the cuvette, to release and chelate total calcium, in the following order: 20 μl of 18% Triton X-100, 20 μl of 3M Tris, pH 8.5, and 20 μl of 0.5 M EGTA, pH 8.5. The experiment is repeated in the presence and the absence of a test compound.
Using 300-19 cells (transformed pre-B lymphocytes) expressing CRTH2, a number of mast cell and non-mast cell-derived mediators were screened in a [Ca^2+]i mobilization assay. […]

The conditions of assay [2]: inhaled, asthmatics; cited from earlier work.
The subject of a further assay is human basophils. Description: Chemotaxis of human basophils. The format is cell-based. The protocol:
(§1) The chemotactic response of human T lymphocytes to PGD2, murine MDC and murine mSDF was also assayed. Chemotaxis was determined using a 48-well Boyden chamber (Neuroprobe, Cabin John, Md.), and 3.0 μm polycarbonate filters. Cells were resuspended (3-3.5×10^6 cells/ml) in RPMI 1640 supplemented with 10 mM HEPES and 1 mg/ml bovine serum albumin (Sigma, St. Louis, Mo.), and placed into the upper wells of the chamber. The compound to be tested was placed in the lower wells. The chambers were incubated for 90-120 minutes at 37° C. in a humidified CO2 incubator. At the end of the incubation period, the number of migrating cells on the filter (expressed per high power field) were enumerated microscopically. […] In FIG. 4, the chemotactic response of human basophils to PGD2 and C5a is shown.

Assay [3] deals with human activated T-lymphocytes. Kind of assay: Chemotaxis of human T lymphocytes (Boyden chamber). It counts as cell-based. The following applies: anti-CD3 or anti-CD3 and anti-CD28 stimulated T cells. The protocol:
as §1

Assay [4] has as its target T1, CRTH2. Description: [3H]-PGD2 binding to 300-19 cells transfected with CRTH2. The protocol:
In a preferred embodiment, a binding assay can be performed as follows: • (a) 300-19 cells (see below) that transiently express CRTH2 are pelleted, and washed twice at room temperature with assay buffer (Hank's balanced saline, including Ca^+2 and Mg^+2, and supplemented with HEPES and sodium bicarbonate). The cells are resuspended at a concentration of 2×10^7 cells/ml. […] After the addition of 50 μl scintillation fluid, the plate is counted in a scintillation counter (1 min per well). […]
To directly determine the binding affinity of CRTH2 for PGD2, the following binding assay was used. […] After the addition of 50 μl scintillation fluid (Packard Microscint 0), the plate was counted in a Packard Topcount scintillation counter (1 min per well). […]
The receptor concentration was calculated to be 79,554 sites/cell.

On CRTH2 [1], `CCCCC[C@H](O)/C=C/[C@H]1C(=O)C[C@H](O)[C@@H]1C/C=C\CCCC(=O)O` [PGD2, prostaglandin D2] gave a 50% effective concentration (EC50) of 15 nM. In assay [2], the “bronchoconstriction potency relative to PGF2α” value is listed as 3.5 × and the “bronchoconstriction potency relative to histamine” value is reported as 30 ×. The “chemotactic response of human basophils” value in the assay with human basophils is reported as “responsive to PGD2”. Also, in assay [3], the “chemotactic response of human T lymphocytes” value is given as “respond specifically to PGD2; also recorded: responsive to PGD2”. Moreover, at CRTH2 [4] (300-19 CRTH2 transfectants, 2 nM [3H]-PGD2, room temperature), the half-inhibitory concentration (IC50) turned out to be 18 nM. Further, at CRTH2 [4] (CRTH2 transfectant, read-out: Kd of [3H]-PGD2 binding (Scatchard plot)), the equilibrium dissociation constant (Kd) amounted to 18.1 nM.
